“And” between values parts separate entries of the source, which are not always exact repeats. Equal entries are not always repeated. ± gives the expanded uncertainty stated by the source.
Experiment: mn = molality of the nth substance listed, in mol/kg
Conditions: 101 kPa, Liquid; for viscosity: Capillary tube (Ostwald / Ubbelohde) method; for speed of sound: Frequency=3 MHz, Sing-around technique in a fixed-path interferometer; for mass density: Vibrating tube method

CCCC[N+](CCCC)(CCCC)CCCC.[I-] [tetrabutylammonium iodide] + O
Conditions | mass density, m1 = 0.01 [kg/m3] | mass density, m1 = 0.03 [kg/m3] | speed of sound, m1 = 0.01 [m/s] | speed of sound, m1 = 0.03 [m/s] | viscosity, m1 = 0.01 | viscosity, m1 = 0.03
288.15 K | 1001.07 ± 4 | 1002.22 ± 4 | 1468.9 ± 1.2 | 1473.6 ± 1.2 | 1.173 ± 0.015 mPa·s and 1.171 ± 0.015 mPa·s | 1.197 ± 0.015 mPa·s and 1.201 ± 0.015 mPa·s and 1.205 ± 0.015 mPa·s
293.15 K | 1000.16 ± 4 | 1001.29 ± 4 | 1484.9 ± 1.2 | 1489.1 ± 1.2 | 1.006 ± 0.013 mPa·s and 1.007 ± 0.013 mPa·s | 1.033 ± 0.014 mPa·s and 1.025 ± 0.013 mPa·s and 1.036 ± 0.014 mPa·s
298.15 K | 998.972 ± 4 | 1000.09 ± 4 | 1498.9 ± 1.2 | 1502.8 ± 1.2 | 0.861 ± 0.011 mPa·s and 0.862 ± 0.011 mPa·s | 0.883 ± 0.011 mPa·s and 0.882 ± 0.011 mPa·s and 0.884 ± 0.011 mPa·s
303.15 K | 997.53 ± 4 | 998.614 ± 4 | 1511.1 ± 1.2 | 1514.5 ± 1.2 | 0.818 ± 0.01 mPa·s and 0.817 ± 0.01 mPa·s | 0.83 ± 0.01 mPa·s and 0.828 ± 0.01 mPa·s and 0.831 ± 0.01 mPa·s
308.15 K | 995.952 ± 4 | 997.021 ± 4 | 1521.2 ± 1.2 | 1524.4 ± 1.2 | 0.731 ± 0.009 mPa·s and 0.732 ± 0.009 mPa·s | 0.739 ± 0.009 mPa·s and 0.744 ± 0.009 mPa·s
